Reference: patent publication US11896586B2, “Apixaban formulations” (Bristol-Myers Squibb Company, priority 2018, dated 2024)

Assay: Dissolution of apixaban in SLD coating solvent, monitored in situ by UV probe
Type: physicochemical
Experimental: Three aliquots of ethanol were dispensed. Apixaban was added to the first portion (1464 g) with stirring. This suspension was then added to a 20 L mixing vessel. To ensure complete API transfer, the remaining aliquots of ethanol (two aliquots of approximately 2600 g each) were used to rinse the suspension container surfaces and were subsequently added to the 20 L mixing vessel in step-wise fashion. The apixaban/ethanol solution was stirred using an overhead mixer at approximately 500 rpm for 50 minutes. Dissolution of apixaban in ethanol was monitored in-situ using a UV probe (absorbance range 278-282 nm, 2 mm tip opening, measure rate 1 s^−1).

COc1ccc(-n2nc(C(N)=O)c3c2C(=O)N(c2ccc(N4CCCCC4=O)cc2)CC3)cc1 [apixaban, 1-(4-methoxyphenyl)-7-oxo-6-[4-(2-oxo-1-piperidinyl)phenyl]-4,5,6,7-tetrahydro-1H-pyrazolo[3,4-c]pyridine-3-carboxamide]
Time to full dissolution of apixaban (ethanol, measured at 0.15 mgA/mL, UV 278-282 nm): less than 10 minutes | Time to full dissolution of apixaban (ethanol/water/HPMC solution, apparent concentration 0.21 mgA/g, UV 280 nm): less than 10 minutes
